# Measured values as given in ChEMBL document CHEMBL3399986, “Rapid 'one-pot' synthesis of a novel benzimidazole-5-carboxylate and its hydrazone derivatives as potential anti-inflammatory and antimicrobial agents” (Bioorg Med Chem Lett, 2015).
# Legend:
# Type in all cases: functional
# Staphylococcus aureus [1] = test: Antimicrobial activity against Staphylococcus aureus MTCC 3160 assessed as zone of inhibition at 5 mg/ml after 24 hrs by agar well diffusion method; settings: MTCC 3160, 24 h, read-out: IZ
# Candida albicans [2] = test: Antifungal activity against Candida albicans MTCC 461 after 48 hrs by broth dilution method; settings: MTCC 461, 48 h
# Candida tropicalis [3] = test: Antifungal activity against Candida tropicalis MTCC 183 assessed as zone of inhibition at 5 mg/ml after 24 hrs by agar well diffusion method; settings: MTCC 183, 24 h, read-out: IZ
# Candida tropicalis [4] = test: Antifungal activity against Candida tropicalis MTCC 183 after 48 hrs by broth dilution method; settings: MTCC 183, 48 h
# Staphylococcus aureus [5] = test: Antimicrobial activity against Staphylococcus aureus MTCC 3160 after 24 hrs by broth dilution method; settings: MTCC 3160, 24 h
# Aspergillus niger [6] = test: Antifungal activity against Aspergillus niger MTCC 282 after 48 hrs by broth dilution method; settings: MTCC 282, 48 h
# Penicillium chrysogenum [7] = test: Antifungal activity against Penicillium notatum after 48 hrs by broth dilution method
# Escherichia coli [8] = test: Antimicrobial activity against Escherichia coli MTCC 4351 assessed as zone of inhibition at 5 mg/ml after 24 hrs by agar well diffusion method; settings: MTCC 4351, 24 h, read-out: IZ
# Escherichia coli [9] = test: Antimicrobial activity against Escherichia coli MTCC 4351 after 24 hrs by broth dilution method; settings: MTCC 4351, 24 h
# Penicillium chrysogenum [10] = test: Antifungal activity against Penicillium notatum assessed as zone of inhibition at 5 mg/ml after 24 hrs by agar well diffusion method; settings: read-out: IZ
# Bacillus subtilis [11] = test: Antimicrobial activity against Bacillus subtilis MTCC 441 assessed as zone of inhibition at 5 mg/ml after 24 hrs by agar well diffusion method; settings: MTCC 441, 24 h, read-out: IZ
# Klebsiella pneumoniae [12] = test: Antimicrobial activity against Klebsiella pneumoniae MTCC 3384 assessed as zone of inhibition at 5 mg/ml after 24 hrs by agar well diffusion method; settings: MTCC 3384, 24 h, read-out: IZ
# Candida albicans [13] = test: Antifungal activity against Candida albicans MTCC 461 assessed as zone of inhibition at 5 mg/ml after 24 hrs by agar well diffusion method; settings: MTCC 461, 24 h, read-out: IZ
# Rattus norvegicus [14] = test: Antiinflammatory activity in rat assessed as inhibition of carrageenan-induced paw edema administered 30 mins prior to carrageenan challenge measured after 1 hr relative to control
# Bacillus subtilis [15] = test: Antimicrobial activity against Bacillus subtilis MTCC 441 after 24 hrs by broth dilution method; settings: MTCC 441, 24 h
# Klebsiella pneumoniae [16] = test: Antimicrobial activity against Klebsiella pneumoniae MTCC 3384 after 24 hrs by broth dilution method; settings: MTCC 3384, 24 h
# Rattus norvegicus [17] = test: Antiinflammatory activity in rat assessed as inhibition of carrageenan-induced paw edema administered 30 mins prior to carrageenan challenge measured after 2 hrs relative to control
# Aspergillus niger [18] = test: Antifungal activity against Aspergillus niger MTCC 282 assessed as zone of inhibition at 5 mg/ml after 24 hrs by agar well diffusion method; settings: MTCC 282, 24 h, read-out: IZ
# Rattus norvegicus [19] = test: Antiinflammatory activity in rat assessed as inhibition of carrageenan-induced paw edema administered 30 mins prior to carrageenan challenge measured after 3 hrs relative to control
MIC (Candida albicans [2]) [µg/mL],MIC (Candida tropicalis [4]) [µg/mL],MIC (Staphylococcus aureus [5]) [µg/mL],MIC (Aspergillus niger [6]) [µg/mL],MIC (Penicillium chrysogenum [7]) [µg/mL],MIC (Escherichia coli [9]) [µg/mL],MIC (Bacillus subtilis [15]) [µg/mL],MIC (Klebsiella pneumoniae [16]) [µg/mL],Structure (SMILES),zone of inhibition at 5000 µg/mL (Staphylococcus aureus [1]) [mm],zone of inhibition at 5000 µg/mL (Candida tropicalis [3]) [mm],zone of inhibition at 5000 µg/mL (Escherichia coli [8]) [mm],zone of inhibition at 5000 µg/mL (Penicillium chrysogenum [10]) [mm],zone of inhibition at 5000 µg/mL (Bacillus subtilis [11]) [mm],zone of inhibition at 5000 µg/mL (Klebsiella pneumoniae [12]) [mm],zone of inhibition at 5000 µg/mL (Candida albicans [13]) [mm],inhibition (INH) (Rattus norvegicus [14]) [%],inhibition (INH) (Rattus norvegicus [17]) [%],zone of inhibition at 5000 µg/mL (Aspergillus niger [18]) [mm],inhibition (INH) (Rattus norvegicus [19]) [%]
25,12.5,12.5,6.25,50,3.12,6.25,25,CCCn1c(-c2ccc(Cl)cc2Cl)nc2cc(C(=O)N/N=C/c3ccc(Br)cc3)ccc21,17,16,22,14,19,17,15,65.55,69.51,20,69.05
50,25,25,12.5,50,12.5,25,25,CCCn1c(-c2ccc(Cl)cc2Cl)nc2cc(C(=O)N/N=C/c3ccccc3[N+](=O)[O-])ccc21,15,16,17,12,16,17,14,46.66,51.74,18,47.44
100,25,25,12.5,25,6.25,25,50,CCCn1c(-c2ccc(Cl)cc2Cl)nc2cc(C(=O)N/N=C/c3cccc(Cl)c3)ccc21,15,16,21,14,15,14,10,49.25,45.73,18,43.35
12.5,50,50,25,25,50,12.5,25,CCCn1c(-c2ccc(Cl)cc2Cl)nc2cc(C(=O)N/N=C/c3ccc(Cl)cc3)ccc21,12,14,10,13,18,17,17,56.85,53.56,17,46.56
12.5,25,12.5,25,50,25,6.25,25,CCCn1c(-c2ccc(Cl)cc2Cl)nc2cc(C(=O)N/N=C/c3ccc(N(C)C)cc3)ccc21,17,16,15,13,19,16,16,55,53.84,16,50.94
6.25,6.25,12.5,3.12,12.5,6.25,6.25,12.5,CCCn1c(-c2ccc(Cl)cc2Cl)nc2cc(C(=O)N/N=C/c3ccccc3F)ccc21,17,18,20,16,19,18,19,60.55,67.78,22,68.9
12.5,6.25,6.25,3.12,6.25,12.5,12.5,6.25,CCCn1c(-c2ccc(Cl)cc2Cl)nc2cc(C(=O)N/N=C/c3ccc(C)cc3)ccc21,20,18,18,17,17,18,16,49.25,52.72,22,47.73
12.5,25,12.5,6.25,50,12.5,25,12.5,CCCn1c(-c2ccc(Cl)cc2Cl)nc2cc(C(=O)N/N=C/c3cccc(Cl)c3Cl)ccc21,17,16,18,12,15,18,16,53.14,49.65,20,45.1
50,50,50,25,25,12.5,25,50,CCCn1c(-c2ccc(Cl)cc2Cl)nc2cc(C(=O)N/N=C/c3ccccc3)ccc21,12,12,18,16,15,12,12,56.85,54.12,19,47.15
50,12.5,12.5,6.25,25,12.5,25,25,CCCn1c(-c2ccc(Cl)cc2Cl)nc2cc(C(=O)N/N=C/c3ccc([N+](=O)[O-])cc3)ccc21,17,16,18,13,16,17,13,50,50.2,20,46.27
25,12.5,25,25,50,50,25,50,CCCn1c(-c2ccc(Cl)cc2Cl)nc2cc(C(=O)N/N=C/c3ccc(Cl)cc3Cl)ccc21,15,16,12,12,15,15,15,51.29,63.63,18,38.39
